Assay [1] concerns the target Serine/threonine-protein kinase Nek6 (Homo sapiens) (UniProt Q9HC98). The assay is described as follows: Residual activity of NEK6 at 10 uM by microplate scintillation counting.
In assay [2] the target is T1, Activin receptor type-1B (Homo sapiens) (UniProt P36896).
T1 sequence (whole entry): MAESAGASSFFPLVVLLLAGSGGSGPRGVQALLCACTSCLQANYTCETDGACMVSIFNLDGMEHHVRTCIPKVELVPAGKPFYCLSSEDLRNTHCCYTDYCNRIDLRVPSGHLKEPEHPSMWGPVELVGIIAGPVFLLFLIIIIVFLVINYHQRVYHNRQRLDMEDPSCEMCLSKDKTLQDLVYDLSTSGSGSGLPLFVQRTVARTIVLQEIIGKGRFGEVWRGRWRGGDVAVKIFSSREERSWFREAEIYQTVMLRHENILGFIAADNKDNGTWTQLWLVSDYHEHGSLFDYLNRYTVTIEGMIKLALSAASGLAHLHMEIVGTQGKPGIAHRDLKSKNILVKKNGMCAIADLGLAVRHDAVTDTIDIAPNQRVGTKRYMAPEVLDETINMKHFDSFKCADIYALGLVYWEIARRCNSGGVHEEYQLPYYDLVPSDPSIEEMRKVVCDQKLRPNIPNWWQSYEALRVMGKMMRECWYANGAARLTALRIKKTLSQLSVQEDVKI
The experiment in a line: Residual activity of ACVR1B at 10 uM by microplate scintillation counting.

Assay [3] addresses Serine/threonine-protein kinase 16 (Homo sapiens) (UniProt O75716). The assay is described as follows: Residual activity of TSF1 at 10 uM by microplate scintillation counting.
In assay [4] the target is Cyclin-dependent kinase 2/cyclin A (Homo sapiens) (UniProt P24941+P20248+P78396). The experiment in a line: Residual activity of CDK2/Cyclin A at 10 uM by microplate scintillation counting. Format: protein-complex assay.
For assay [5], the target named is T2, Serine/threonine-protein kinase 17A (Homo sapiens) (UniProt Q9UEE5).
T2 sequence (whole entry): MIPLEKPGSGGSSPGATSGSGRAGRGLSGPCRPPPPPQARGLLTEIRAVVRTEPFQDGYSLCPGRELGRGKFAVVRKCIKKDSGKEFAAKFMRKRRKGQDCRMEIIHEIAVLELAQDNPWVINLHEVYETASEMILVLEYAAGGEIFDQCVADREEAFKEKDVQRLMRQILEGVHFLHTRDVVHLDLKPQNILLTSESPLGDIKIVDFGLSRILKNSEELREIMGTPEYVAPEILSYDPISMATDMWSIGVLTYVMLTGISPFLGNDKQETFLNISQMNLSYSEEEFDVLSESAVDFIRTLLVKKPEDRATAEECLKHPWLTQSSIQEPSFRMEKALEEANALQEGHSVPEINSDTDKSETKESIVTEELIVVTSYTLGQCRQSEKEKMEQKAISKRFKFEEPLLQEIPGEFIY
The assay is described as follows: Residual activity of STK17A at 0.1 uM by microplate scintillation counting.

For assay [6], the target named is Serine/threonine-protein kinase Nek6 (Homo sapiens) (UniProt Q9HC98). The experiment in a line: Residual activity of NEK6 at 1 uM by microplate scintillation counting.
The target of assay [7] is Serine/threonine-protein kinase pim-2 (Homo sapiens) (UniProt Q9P1W9). The experiment in a line: Residual activity of PIM2 at 1 uM by microplate scintillation counting.
Sequence of Serine/threonine-protein kinase pim-2 (Homo sapiens) (Q9P1W9 whole entry, looked up): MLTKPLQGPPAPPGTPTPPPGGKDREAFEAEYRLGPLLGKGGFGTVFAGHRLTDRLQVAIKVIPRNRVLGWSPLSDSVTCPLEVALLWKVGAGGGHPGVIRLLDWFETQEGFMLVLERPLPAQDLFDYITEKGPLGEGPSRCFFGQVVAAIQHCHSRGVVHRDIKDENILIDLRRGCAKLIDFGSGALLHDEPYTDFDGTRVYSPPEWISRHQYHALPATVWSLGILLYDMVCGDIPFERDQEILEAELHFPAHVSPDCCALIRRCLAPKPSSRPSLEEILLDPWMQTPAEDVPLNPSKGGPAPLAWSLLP
In assay [8] the target is Epidermal growth factor receptor (Homo sapiens, UniProt P00533). The assay is described as follows: Residual activity of wild type EGF-R at 1 uM by microplate scintillation counting.
Sequence of Epidermal growth factor receptor (P00533 whole entry): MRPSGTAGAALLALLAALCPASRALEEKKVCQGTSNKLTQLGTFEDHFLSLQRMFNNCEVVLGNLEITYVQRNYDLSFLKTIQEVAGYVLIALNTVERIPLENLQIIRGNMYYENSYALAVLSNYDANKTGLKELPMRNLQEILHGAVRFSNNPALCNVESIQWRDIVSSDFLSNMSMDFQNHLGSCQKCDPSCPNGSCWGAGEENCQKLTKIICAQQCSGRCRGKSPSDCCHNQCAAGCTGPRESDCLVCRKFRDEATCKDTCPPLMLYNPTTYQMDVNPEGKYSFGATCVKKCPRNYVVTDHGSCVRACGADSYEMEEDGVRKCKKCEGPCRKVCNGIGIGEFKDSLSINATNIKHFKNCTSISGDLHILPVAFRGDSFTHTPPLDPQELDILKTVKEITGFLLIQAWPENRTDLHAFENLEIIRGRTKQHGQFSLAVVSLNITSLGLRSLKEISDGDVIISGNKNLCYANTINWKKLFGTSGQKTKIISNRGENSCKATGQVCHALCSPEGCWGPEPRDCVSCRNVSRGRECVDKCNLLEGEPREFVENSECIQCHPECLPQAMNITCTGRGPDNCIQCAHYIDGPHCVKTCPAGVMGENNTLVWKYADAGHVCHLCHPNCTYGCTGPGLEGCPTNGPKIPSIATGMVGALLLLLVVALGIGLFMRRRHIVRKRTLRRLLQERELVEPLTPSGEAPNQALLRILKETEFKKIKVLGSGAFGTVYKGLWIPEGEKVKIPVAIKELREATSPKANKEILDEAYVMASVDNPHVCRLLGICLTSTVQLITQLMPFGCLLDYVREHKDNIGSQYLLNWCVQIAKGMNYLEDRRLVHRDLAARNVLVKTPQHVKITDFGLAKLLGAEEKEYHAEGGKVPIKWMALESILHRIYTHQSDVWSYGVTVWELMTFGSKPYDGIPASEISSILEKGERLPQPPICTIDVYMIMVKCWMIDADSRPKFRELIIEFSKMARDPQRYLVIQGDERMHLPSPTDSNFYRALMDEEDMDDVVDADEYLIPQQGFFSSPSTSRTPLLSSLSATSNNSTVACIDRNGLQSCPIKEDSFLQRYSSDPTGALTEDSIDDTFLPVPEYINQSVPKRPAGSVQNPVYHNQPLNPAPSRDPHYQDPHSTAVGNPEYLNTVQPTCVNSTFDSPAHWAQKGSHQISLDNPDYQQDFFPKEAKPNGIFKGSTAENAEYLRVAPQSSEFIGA
In assay [9] the target is Protein kinase C gamma type (Homo sapiens) (UniProt P05129). The experiment in a line: Residual activity of PKCgamma at 10 uM by microplate scintillation counting.
Assay [10] deals with Ephrin type-A receptor 4 (Homo sapiens) (UniProt P54764). The experiment in a line: Residual activity of EPHA4 at 10 uM by microplate scintillation counting.
Sequence of Ephrin type-A receptor 4 (Homo sapiens) (P54764 whole entry): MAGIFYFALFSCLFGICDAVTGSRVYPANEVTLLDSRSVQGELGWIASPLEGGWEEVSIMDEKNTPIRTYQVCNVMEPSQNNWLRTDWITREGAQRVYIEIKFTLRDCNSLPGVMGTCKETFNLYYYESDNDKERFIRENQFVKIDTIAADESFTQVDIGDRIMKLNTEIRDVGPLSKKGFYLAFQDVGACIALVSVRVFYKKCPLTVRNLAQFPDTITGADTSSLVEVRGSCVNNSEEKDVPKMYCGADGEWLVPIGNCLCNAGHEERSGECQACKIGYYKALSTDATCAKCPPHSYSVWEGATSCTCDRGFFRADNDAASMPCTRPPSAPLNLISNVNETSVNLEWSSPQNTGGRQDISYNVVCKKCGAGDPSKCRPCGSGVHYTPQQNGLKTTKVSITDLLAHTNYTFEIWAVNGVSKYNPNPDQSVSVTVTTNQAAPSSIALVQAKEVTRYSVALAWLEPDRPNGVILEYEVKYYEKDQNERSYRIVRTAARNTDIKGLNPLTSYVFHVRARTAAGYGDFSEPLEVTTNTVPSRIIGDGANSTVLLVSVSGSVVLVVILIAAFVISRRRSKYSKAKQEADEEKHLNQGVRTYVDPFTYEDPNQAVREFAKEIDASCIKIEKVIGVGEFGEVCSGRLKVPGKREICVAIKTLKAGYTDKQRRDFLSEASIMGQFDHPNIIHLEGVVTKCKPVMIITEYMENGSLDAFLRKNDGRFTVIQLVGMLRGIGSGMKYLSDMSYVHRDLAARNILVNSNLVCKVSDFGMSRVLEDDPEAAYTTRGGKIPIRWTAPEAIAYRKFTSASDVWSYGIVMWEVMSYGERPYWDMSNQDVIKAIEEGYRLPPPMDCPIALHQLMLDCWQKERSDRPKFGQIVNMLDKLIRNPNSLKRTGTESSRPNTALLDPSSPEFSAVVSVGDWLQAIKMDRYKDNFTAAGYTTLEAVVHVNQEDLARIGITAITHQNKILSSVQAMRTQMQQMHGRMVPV
Assay [11] has as its target T3, Ephrin type-B receptor 3 (Homo sapiens) (UniProt P54753).
T3 sequence (whole entry): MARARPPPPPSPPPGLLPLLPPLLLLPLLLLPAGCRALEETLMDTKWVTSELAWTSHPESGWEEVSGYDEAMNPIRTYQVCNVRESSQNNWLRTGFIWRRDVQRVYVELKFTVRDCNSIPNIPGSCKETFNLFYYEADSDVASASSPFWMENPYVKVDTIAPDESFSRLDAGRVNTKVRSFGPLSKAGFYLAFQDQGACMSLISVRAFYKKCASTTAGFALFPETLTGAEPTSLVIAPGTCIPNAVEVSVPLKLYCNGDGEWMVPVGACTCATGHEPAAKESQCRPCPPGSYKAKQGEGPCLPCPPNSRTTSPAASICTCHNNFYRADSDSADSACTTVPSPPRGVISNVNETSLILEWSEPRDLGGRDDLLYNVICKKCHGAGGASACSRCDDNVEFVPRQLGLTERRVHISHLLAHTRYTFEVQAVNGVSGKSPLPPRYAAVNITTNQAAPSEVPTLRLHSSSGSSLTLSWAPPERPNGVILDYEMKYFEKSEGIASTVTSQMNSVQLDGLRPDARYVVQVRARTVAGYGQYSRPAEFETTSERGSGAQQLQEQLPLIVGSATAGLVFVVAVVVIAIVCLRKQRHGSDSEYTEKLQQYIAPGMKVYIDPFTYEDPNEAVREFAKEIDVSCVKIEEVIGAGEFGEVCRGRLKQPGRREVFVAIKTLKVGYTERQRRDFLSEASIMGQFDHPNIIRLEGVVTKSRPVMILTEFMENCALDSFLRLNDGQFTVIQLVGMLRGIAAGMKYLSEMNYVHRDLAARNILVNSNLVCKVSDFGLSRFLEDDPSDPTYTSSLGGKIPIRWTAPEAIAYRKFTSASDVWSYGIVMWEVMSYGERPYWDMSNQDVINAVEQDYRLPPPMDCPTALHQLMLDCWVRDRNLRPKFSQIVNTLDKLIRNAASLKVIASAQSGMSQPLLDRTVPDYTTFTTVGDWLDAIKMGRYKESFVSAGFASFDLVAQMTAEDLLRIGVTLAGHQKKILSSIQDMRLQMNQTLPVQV
The assay is described as follows: Residual activity of EPHB3 at 1 uM by microplate scintillation counting.

Assay [12] concerns the target RAC-alpha serine/threonine-protein kinase (Homo sapiens) (UniProt P31749). The experiment in a line: Residual activity of AKT1 at 10 uM by microplate scintillation counting.
The subject of assay [13] is Serine/threonine-protein kinase B-raf (Homo sapiens), P15056 [V600E]. The assay is described as follows: Residual activity of B-RAF V600E mutant at 10 uM by microplate scintillation counting.

The text below walks through data of ChEMBL document CHEMBL1152560, “Substituted 2-arylbenzothiazoles as kinase inhibitors: hit-to-lead optimization” (Bioorg Med Chem, 2009).

Sequence of Serine/threonine-protein kinase B-raf (Homo sapiens), P15056 [V600E] (P15056 whole entry V600E): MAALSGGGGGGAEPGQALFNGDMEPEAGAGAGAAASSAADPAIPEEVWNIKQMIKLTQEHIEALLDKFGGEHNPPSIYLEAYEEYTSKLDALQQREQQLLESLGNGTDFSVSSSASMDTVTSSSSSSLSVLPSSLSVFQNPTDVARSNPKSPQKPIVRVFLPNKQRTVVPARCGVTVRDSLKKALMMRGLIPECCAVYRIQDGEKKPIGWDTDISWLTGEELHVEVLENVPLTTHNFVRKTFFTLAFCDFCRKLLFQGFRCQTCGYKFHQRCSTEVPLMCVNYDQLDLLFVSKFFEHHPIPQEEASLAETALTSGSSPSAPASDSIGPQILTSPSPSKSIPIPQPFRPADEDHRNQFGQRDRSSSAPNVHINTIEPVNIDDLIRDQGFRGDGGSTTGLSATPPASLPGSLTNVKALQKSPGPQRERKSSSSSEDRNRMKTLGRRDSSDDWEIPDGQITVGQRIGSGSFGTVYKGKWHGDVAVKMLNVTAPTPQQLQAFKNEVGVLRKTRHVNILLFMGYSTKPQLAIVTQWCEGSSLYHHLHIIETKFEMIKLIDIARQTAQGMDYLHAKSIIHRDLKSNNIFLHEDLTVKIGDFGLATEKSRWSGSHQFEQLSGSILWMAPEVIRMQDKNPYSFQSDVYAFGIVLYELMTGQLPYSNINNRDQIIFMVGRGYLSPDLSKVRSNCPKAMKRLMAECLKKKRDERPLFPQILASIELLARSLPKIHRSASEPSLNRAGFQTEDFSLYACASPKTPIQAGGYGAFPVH
Sequence of Serine/threonine-protein kinase 16 (Homo sapiens) (O75716 whole entry): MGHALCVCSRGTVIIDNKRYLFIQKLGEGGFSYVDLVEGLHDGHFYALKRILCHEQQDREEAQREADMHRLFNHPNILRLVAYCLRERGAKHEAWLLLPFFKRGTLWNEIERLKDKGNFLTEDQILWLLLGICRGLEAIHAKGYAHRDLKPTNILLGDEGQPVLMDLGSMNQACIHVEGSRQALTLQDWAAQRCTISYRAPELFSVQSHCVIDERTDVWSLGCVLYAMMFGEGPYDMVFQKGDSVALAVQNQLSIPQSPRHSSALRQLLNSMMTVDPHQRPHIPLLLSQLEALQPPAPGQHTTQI
Sequence of RAC-alpha serine/threonine-protein kinase (Homo sapiens) (P31749 whole entry): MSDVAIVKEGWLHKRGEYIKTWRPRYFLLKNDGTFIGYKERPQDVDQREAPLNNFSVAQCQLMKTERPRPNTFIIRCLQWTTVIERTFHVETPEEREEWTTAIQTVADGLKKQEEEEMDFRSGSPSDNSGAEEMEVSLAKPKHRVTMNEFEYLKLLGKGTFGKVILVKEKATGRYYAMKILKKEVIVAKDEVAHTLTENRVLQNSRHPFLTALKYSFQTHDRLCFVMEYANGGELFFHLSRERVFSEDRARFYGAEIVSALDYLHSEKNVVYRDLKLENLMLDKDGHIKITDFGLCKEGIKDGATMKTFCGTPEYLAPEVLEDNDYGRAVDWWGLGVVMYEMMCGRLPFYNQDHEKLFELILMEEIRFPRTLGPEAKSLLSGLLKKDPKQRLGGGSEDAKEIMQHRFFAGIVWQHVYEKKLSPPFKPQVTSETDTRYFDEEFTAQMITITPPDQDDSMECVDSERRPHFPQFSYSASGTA

With `COc1cc2c(Oc3ccc(-c4nc5ccccc5s4)cc3)ncnc2cc1OCCCN1CCN(C)CC1`, the residual activity in assay [1] was 96%; in assay [2], 93%; in assay [3], 66%; in assay [4], 84%; in [5], 66%; in assay [6] it was 96%. Also, the residual activity in assay [7] came to 63%; in assay [8], 77%; in assay [9], 80%; in [10], 112%; in [11], 108%; in [12] it was 120%. The residual activity in assay [13] was found to be 57%.
For the molecule `COc1cc2c(Oc3ccc(-c4nc5ccccc5s4)cc3)ncnc2cc1OCCCN1CCCC1`, the residual activity in assay [1] came to 94%; in assay [2], 104%; in assay [3], 56%; in [4], 79%; in assay [5] it was 66%; in assay [6] it was 84%. In addition, the residual activity in [7] came out at 89%; in assay [8], 91%; in [9], 33%; in assay [10], 94%; in [11] it was 105%; in assay [12] it was 87%. Moreover, the residual activity in [13] was determined as 58%.
In the case of `COc1cc2c(Oc3ccc(-c4nc5ccccc5s4)cc3F)ncnc2cc1OCCCN1CCN(C)CC1`, the residual activity worked out at 101% in assay [1]; 109% in assay [2]; 59% in assay [3]; 73% in assay [4]; 87% in assay [5]; 102% in [6]. Also, the residual activity in assay [7] amounted to 77%; in assay [8], 96%; in assay [9], 58%; in assay [10], 47%; in [11] it was 106%; in [12], 105%. The residual activity in [13] was found to be 81%.

What is called residual activity is the signal under treatment as a percentage of the control signal.
